Values quoted from earlier work in patent publication US10351593B2, “Derivatives of dolastatin 10 and uses thereof” (NewBio Therapeutics, Inc., priority 2015, dated 2019).

System: human carcinoma lines

IC50: 100 to 200 nM
SMILES: COc1cccc2c1C(=O)c1c(O)c3c(c(O)c1C2=O)C[C@@](O)(C(=O)CO)C[C@@H]3O[C@H]1C[C@H](N)[C@H](O)[C@H](C)O1 [doxorubicin]
